From patent publication US10590086B2, “Pharmaceutical compound” (IOmet Pharma Ltd., priority 2014, dated 2020)

Legend:
IDO = IDO (Homo sapiens, UniProt P14902); assay: SKOV3 kynurenine cell-based assay (IDO induced by IFN-γ); parameters: IDO expression was induced in the SKOV3 cells by the addition of 500 ng/ml IFN-γ; endogenous in cells; host or cells: SKOV3 (human ovarian adenocarcinoma), induced with IFN-γ; details: SKOV3 human ovarian adenocarcinoma cells, 500 ng/ml IFN-γ, 48 hours, 500 μM L-tryptophan; read-out: SKOV3 Kynurenine cell based assay pIC50 (converted)
Protocol: (§1) Exemplary compounds of the invention were prepared, and tested to determine their effect as TDO and/or IDO inhibitors. Two different assays were employed: 1. a cell-based assay for detecting the effect of test compounds on kynurenine production in two different cancer cell types. This assay utilised cancer cells which expressed either TDO or IDO and as such was used as a means of testing compound activity at these two enzymes in a cell-based context. 2. a TDO and IDO biochemical coupled assay which utilised recombinantly produced and purified TDO and IDO enzymes in combination with the enzyme formamidase. This coupled enzyme system allowed conversion of N-formylkynurenine produced by TDO or IDO activity to kynurenine which was then quantified by fluorescence following addition of Erhlich's Reagent The protocols for these are set out below.
(§2) Cell Based Assay for Detection of Kynurenine Produced by TDO and/or IDO
(§3) A172 (human glioblastoma) and SKOV3 (human ovarian adenocarcinoma) cells were seeded in a 96 well plate at 30,000 or 40,000 cells per well respectively in phenol red-free RPMI supplemented with 10% FCS, 2 mM L-glutamine and 500 μM L-tryptophan. IDO expression was induced in the SKOV3 cells by the addition of 500 ng/ml IFN-γ. Cells were incubated at 37° C. with or without the addition of test compound. After 48 hours, the cells were removed by centrifugation and Erhlich's reagent was added to the supernatant. The Erhlich's reagent was incubated for 5 minutes before the absorbance was read at 490 nm.

TDO = TDO (Homo sapiens, UniProt P48775); assay: A172 kynurenine cell-based assay; parameters: This assay utilised cancer cells which expressed either TDO or IDO; endogenous in cells; host or cells: A172 (human glioblastoma); details: A172 human glioblastoma cells, 48 hours, 500 μM L-tryptophan; read-out: A172 Kynurenine cell based assay pIC50 (converted)
Protocol: as §1, §2, §3

TDO, sequence (P48775 whole entry): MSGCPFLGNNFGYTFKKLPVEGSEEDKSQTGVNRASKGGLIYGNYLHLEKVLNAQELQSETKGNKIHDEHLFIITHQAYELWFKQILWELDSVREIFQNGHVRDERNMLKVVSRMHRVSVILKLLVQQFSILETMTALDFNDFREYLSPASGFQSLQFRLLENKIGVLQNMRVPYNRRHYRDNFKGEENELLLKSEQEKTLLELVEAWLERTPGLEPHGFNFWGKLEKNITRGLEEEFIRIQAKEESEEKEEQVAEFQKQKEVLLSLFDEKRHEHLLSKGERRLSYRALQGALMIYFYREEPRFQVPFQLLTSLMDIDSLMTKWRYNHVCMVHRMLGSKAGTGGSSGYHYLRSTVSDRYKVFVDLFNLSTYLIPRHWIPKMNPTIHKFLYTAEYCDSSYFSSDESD
IDO, sequence (P14902 whole entry): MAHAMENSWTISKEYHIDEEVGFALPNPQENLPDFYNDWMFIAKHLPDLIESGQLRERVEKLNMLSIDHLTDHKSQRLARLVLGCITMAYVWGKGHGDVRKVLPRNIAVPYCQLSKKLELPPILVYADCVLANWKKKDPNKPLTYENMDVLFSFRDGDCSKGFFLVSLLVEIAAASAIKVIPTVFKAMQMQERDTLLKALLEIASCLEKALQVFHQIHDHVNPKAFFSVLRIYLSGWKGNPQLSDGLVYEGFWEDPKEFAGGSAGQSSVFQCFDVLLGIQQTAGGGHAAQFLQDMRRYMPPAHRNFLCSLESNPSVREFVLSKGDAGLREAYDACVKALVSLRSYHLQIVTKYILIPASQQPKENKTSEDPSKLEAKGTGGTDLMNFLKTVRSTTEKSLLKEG

Structure (SMILES) | IC50 (IDO) | IC50 (TDO)
CN(C)C(=O)N1CCC(c2cc(Cl)cc3[nH]ncc23)CC1 [Compound 132] | 3.24 to 31.6 µM | < 3.16 µM
CC(=O)N1CCC(c2cc(C(F)(F)F)cc3[nH]ncc23)CC1(C)C (centres unmarked) [Compound 133] | < 3.16 µM | < 3.16 µM
C[C@@H]1CN(c2cc(Cl)cc3[nH]ncc23)C[C@H](C)N1S(C)(=O)=O [Compound 134] | < 3.16 µM | < 3.16 µM
CS(=O)(=O)N1CCN(c2cc(Cl)cc3[nH]nc(N)c23)CC1 [Compound 135] | 3.24 to 31.6 µM | 32.4 to 100 µM
CC(O)C(=O)N1CCN(c2cc(Cl)cc3[nH]ncc23)CC1 (centres unmarked) [Compound 136] | 3.24 to 31.6 µM | < 3.16 µM
O=S(=O)(c1ccccc1)N1CCC(c2cc(Cl)cc3[nH]ncc23)CC1 [Compound 138] | 3.24 to 31.6 µM | < 3.16 µM
CC(=O)N1CCN(c2cc(C3CCCC3)cc3[nH]ncc23)CC1 [Compound 139] | > 100 µM | 32.4 to 100 µM
CCCS(=O)(=O)N1CCC(c2cc(Cl)cc3[nH]ncc23)CC1 [Compound 140] | 3.24 to 31.6 µM | < 3.16 µM
CC(C)S(=O)(=O)N1CCC(c2cc(Cl)cc3[nH]ncc23)CC1 [Compound 141] | 3.24 to 31.6 µM | < 3.16 µM
OCCNc1cc(Cl)cc2[nH]ncc12 [Compound 142] | > 100 µM | 3.24 to 31.6 µM
O=S(=O)(C1CCCC1)N1CCC(c2cc(Cl)cc3[nH]ncc23)CC1 [Compound 143] | 3.24 to 31.6 µM | < 3.16 µM
CN1C(=O)NC2(CCN(c3cc(Cl)cc4[nH]ncc34)CC2)C1=O [Compound 144] | < 3.16 µM | < 3.16 µM
CC(C)c1cc(N2CCN(S(C)(=O)=O)C(C)(C)C2)c2cn[nH]c2c1 [Compound 145] | 3.24 to 31.6 µM | < 3.16 µM
CS(=O)(=O)N1CCN(c2cc(N3CCCC3)cc3[nH]ncc23)CC1 [Compound 146] | > 100 µM | 32.4 to 100 µM
CC(=O)N1CCN(c2cc(C(C)C)cc3[nH]ncc23)CC1(C)C [Compound 147] | 3.24 to 31.6 µM | 3.24 to 31.6 µM
CC1(C)CN(c2cc(C3CCCC3)cc3[nH]ncc23)CCN1S(C)(=O)=O [Compound 148] | 32.4 to 100 µM | 3.24 to 31.6 µM
CC(=O)N1CCN(c2cc(C3CCCC3)cc3[nH]ncc23)CC1(C)C [Compound 149] | 3.24 to 31.6 µM | 3.24 to 31.6 µM
CNC(=O)N1CCC(c2cc(Cl)cc3[nH]ncc23)CC1 [Compound 150] | 3.24 to 31.6 µM | < 3.16 µM
CS(=O)(=O)N1CCN(c2cc(Cl)cc3[nH]ncc23)c2ccccc21 [Compound 151] | 3.24 to 31.6 µM | > 100 µM
OCCc1cc(Cl)cc2[nH]ncc12 [Compound 152] | > 100 µM | 3.24 to 31.6 µM
CC(O)c1cc(Cl)cc2[nH]ncc12 (centres unmarked) [Compound 153] | 32.4 to 100 µM | < 3.16 µM
CC1(C)CC(c2cc(C(F)(F)F)cc3[nH]ncc23)CCN1S(C)(=O)=O (centres unmarked) [Compound 154] | 3.24 to 31.6 µM | < 3.16 µM

Structure (SMILES) | IC50 (IDO) | IC50 (TDO)
CNCCNc1cc(Cl)cc2[nH]ncc12 [Compound 156] | 32.4 to 100 µM | 3.24 to 31.6 µM
CS(=O)(=O)N1CCN(c2cc(-c3ncco3)cc3[nH]ncc23)CC1 [Compound 157] | 32.4 to 100 µM | > 100 µM
CCc1cc(N2CCN(S(C)(=O)=O)CC2)c2cn[nH]c2c1 [Compound 158] | 3.24 to 31.6 µM | 3.24 to 31.6 µM
CS(=O)(=O)N1CCC(Oc2cc(Cl)cc3[nH]ncc23)CC1 [Compound 159] | 3.24 to 31.6 µM | 3.24 to 31.6 µM
CC(=O)N1CCC(Oc2cc(Cl)cc3[nH]ncc23)CC1 [Compound 160] | 3.24 to 31.6 µM | < 3.16 µM
CCc1cc(N2CCN(S(C)(=O)=O)C(C)(C)C2)c2cn[nH]c2c1 [Compound 161] | < 3.16 µM | < 3.16 µM
COCCn1ncc2c(OC3CCN(S(C)(=O)=O)CC3)cc(Cl)cc21 [Compound 162] | 32.4 to 100 µM | > 100 µM
CS(=O)(=O)N1CCC(Oc2cc(Cl)cc3c2cnn3CCO)CC1 [Compound 163] | 32.4 to 100 µM | > 100 µM
CN1CCN(c2cc(Cl)cc3[nH]ncc23)CC1(C)C [Compound 164] | 32.4 to 100 µM | < 3.16 µM
O=C(C1CC1)N1CCC(c2cc(Cl)cc3[nH]ncc23)CC1 [Compound 165] | 32.4 to 100 µM | < 3.16 µM
CC(C)C(=O)N1CCC(c2cc(Cl)cc3[nH]ncc23)CC1 [Compound 166] | 32.4 to 100 µM | < 3.16 µM
O=C(CO)N1CCC(c2cc(Cl)cc3[nH]ncc23)CC1 [Compound 167] | 3.24 to 31.6 µM | < 3.16 µM
NC(=O)N1CCC(c2cc(Cl)cc3[nH]ncc23)CC1 [Compound 168] | 3.24 to 31.6 µM | < 3.16 µM
CS(=O)(=O)N1CCN(c2cc(C3CCOCC3)cc3[nH]ncc23)CC1 [Compound 169] | > 100 µM | 3.24 to 31.6 µM
CCC(=O)N1CCC(c2cc(Cl)cc3[nH]ncc23)CC1 [Compound 170] | 3.24 to 31.6 µM | < 3.16 µM
CC1(C)CN(c2cc(-c3ncco3)cc3[nH]ncc23)CCN1S(C)(=O)=O [Compound 171] | > 100 µM | 3.24 to 31.6 µM
CNS(=O)(=O)N1CCC(c2cc(Cl)cc3[nH]ncc23)CC1 [Compound 172] | 3.24 to 31.6 µM | < 3.16 µM
CN(C)S(=O)(=O)N1CCC(c2cc(Cl)cc3[nH]ncc23)CC1 [Compound 173] | 3.24 to 31.6 µM | < 3.16 µM
NS(=O)(=O)N1CCC(c2cc(Cl)cc3[nH]ncc23)CC1 [Compound 174] | 3.24 to 31.6 µM | < 3.16 µM
CC1(C)CC(c2cc(Cl)cc3[nH]ncc23)CCN1S(C)(=O)=O (centres unmarked) [Compound 175] | 3.24 to 31.6 µM | < 3.16 µM
COCC(=O)N1CCC(c2cc(Cl)cc3[nH]ncc23)CC1 [Compound 176] | 3.24 to 31.6 µM | < 3.16 µM
CC(O)C(=O)N1CCC(c2cc(Cl)cc3[nH]ncc23)CC1 (centres unmarked) [Compound 177] | 3.24 to 31.6 µM | < 3.16 µM

Structure (SMILES) | IC50 (IDO) | IC50 (TDO)
CS(=O)(=O)c1ccc(Nc2cc(Cl)cc3[nH]ncc23)cc1 [Compound 180] | 32.4 to 100 µM | 3.24 to 31.6 µM
CS(=O)(=O)N1CCN(c2cc(Cl)cc3[nH]ncc23)CC12CCC2 [Compound 181] | < 3.16 µM | < 3.16 µM
CC(=O)N1CCN(c2cc(Cl)cc3[nH]ncc23)CC12CCC2 [Compound 182] | 3.24 to 31.6 µM | < 3.16 µM
CN1C(=O)NC(=O)C12CCN(c1cc(Cl)cc3[nH]ncc13)CC2 [Compound 184] | 3.24 to 31.6 µM | < 3.16 µM
O=C1NC(=O)C2(CCN(c3cc(C(F)(F)F)cc4[nH]ncc34)CC2)N1 [Compound 185] | < 3.16 µM | < 3.16 µM
CS(=O)(=O)N1CCN(c2cc(C(F)(F)F)cc3[nH]ncc23)c2ccccc21 [Compound 186] | 3.24 to 31.6 µM | > 100 µM
CC1(C)CC(c2cccc3[nH]ncc23)CCN1S(C)(=O)=O (centres unmarked) [Compound 187] | 32.4 to 100 µM | 3.24 to 31.6 µM
O=S(=O)(C1CC1)N1CCC(c2cc(Cl)cc3[nH]ncc23)CC1 [Compound 188] | 3.24 to 31.6 µM | < 3.16 µM
O=C1NCCC12CCN(c1cc(Cl)cc3[nH]ncc13)CC2 [Compound 189] | 3.24 to 31.6 µM | 3.24 to 31.6 µM
CC(=O)N1CCC(c2cccc3[nH]ncc23)CC1(C)C (centres unmarked) [Compound 190] | 3.24 to 31.6 µM | < 3.16 µM
CC(C)(O)C(=O)N1CCC(c2cc(Cl)cc3[nH]ncc23)CC1 [Compound 191] | > 100 µM | < 3.16 µM
CS(=O)(=O)NC1CCN(c2cc(Cl)cc3[nH]ncc23)C1 (centres unmarked) [Compound 193] | 3.24 to 31.6 µM | < 3.16 µM
CS(=O)(=O)N1CCN(c2cc(C#N)cc3[nH]ncc23)CC1 [Compound 194] | 3.24 to 31.6 µM | 3.24 to 31.6 µM
O=C(N1CCC(c2cc(Cl)cc3[nH]ncc23)CC1)C1(O)CC1 [Compound 195] | 3.24 to 31.6 µM | < 3.16 µM
C[C@@H]1CN(S(C)(=O)=O)CCN1c1cc(Cl)cc2[nH]ncc12 [Compound 197] | 3.24 to 31.6 µM | < 3.16 µM
C[C@H]1CN(S(C)(=O)=O)CCN1c1cc(Cl)cc2[nH]ncc12 [Compound 200] | 3.24 to 31.6 µM | < 3.16 µM
CC(=O)N1CC2CC1CN2c1cc(Cl)cc2[nH]ncc12 (centres unmarked) [Compound 201] | 32.4 to 100 µM | 3.24 to 31.6 µM
CS(=O)(=O)N1CC2CC1CN2c1cc(Cl)cc2[nH]ncc12 (centres unmarked) [Compound 202] | 32.4 to 100 µM | < 3.16 µM
CS(=O)(=O)NC1CCC(c2cc(Cl)cc3[nH]ncc23)CC1 (centres unmarked) [Compound 203] | 3.24 to 31.6 µM | < 3.16 µM
O=C(C1COC1)N1CCN(c2cc(Cl)cc3[nH]ncc23)CC1 [Compound 204] | > 100 µM | < 3.16 µM
